Results: patent publication US20210070748A1, “INHIBITORS OF BRUTONS TYROSINE KINASE” (Pharmacyclics LLC, priority 2015, published 2021)
pIC50: −log10 of the molar value. Read-outs that look alike come from different tables or passages of the source.

What was measured:
Type in all cases: biochemical
BTK-WT = target: T1, BTK-WT (Homo sapiens, UniProt Q06187); test: Btk in vitro inhibitory activity (one of Method A TR-FRET, Method B electrophoretic mobility shift, Method C radiometric filter binding); conditions: read-out: IC50 BTK-WT
T1 construct: purified from insect cells as a full-length construct containing an N-terminal 6X-His tag; His6 (N); made in house; host or cells: insect cells (baculovirus Sf21 in Method B)
T1 sequence (Q06187 whole entry): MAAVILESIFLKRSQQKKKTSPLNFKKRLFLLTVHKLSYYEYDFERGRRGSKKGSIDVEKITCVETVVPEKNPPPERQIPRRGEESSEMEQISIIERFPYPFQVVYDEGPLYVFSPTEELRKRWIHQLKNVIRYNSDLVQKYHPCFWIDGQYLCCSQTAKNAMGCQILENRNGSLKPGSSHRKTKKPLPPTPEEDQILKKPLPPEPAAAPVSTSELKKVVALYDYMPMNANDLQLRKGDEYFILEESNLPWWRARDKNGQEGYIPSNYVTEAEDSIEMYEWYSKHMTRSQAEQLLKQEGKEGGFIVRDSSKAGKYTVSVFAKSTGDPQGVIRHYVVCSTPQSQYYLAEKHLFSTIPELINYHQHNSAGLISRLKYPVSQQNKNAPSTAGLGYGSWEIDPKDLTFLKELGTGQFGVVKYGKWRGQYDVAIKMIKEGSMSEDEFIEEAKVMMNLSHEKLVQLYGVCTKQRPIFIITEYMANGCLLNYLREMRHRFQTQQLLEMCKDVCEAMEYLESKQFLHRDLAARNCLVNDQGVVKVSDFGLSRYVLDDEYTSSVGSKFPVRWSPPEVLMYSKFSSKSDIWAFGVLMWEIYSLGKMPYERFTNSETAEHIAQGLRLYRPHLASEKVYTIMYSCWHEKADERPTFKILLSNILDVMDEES

LCK = LCK (Homo sapiens, UniProt P06239); test: Inhibition of a panel of kinases, in vitro HotSpot kinase assay: LCK; conditions: read-out: IC50 LCK
LCK, sequence (P06239 whole entry): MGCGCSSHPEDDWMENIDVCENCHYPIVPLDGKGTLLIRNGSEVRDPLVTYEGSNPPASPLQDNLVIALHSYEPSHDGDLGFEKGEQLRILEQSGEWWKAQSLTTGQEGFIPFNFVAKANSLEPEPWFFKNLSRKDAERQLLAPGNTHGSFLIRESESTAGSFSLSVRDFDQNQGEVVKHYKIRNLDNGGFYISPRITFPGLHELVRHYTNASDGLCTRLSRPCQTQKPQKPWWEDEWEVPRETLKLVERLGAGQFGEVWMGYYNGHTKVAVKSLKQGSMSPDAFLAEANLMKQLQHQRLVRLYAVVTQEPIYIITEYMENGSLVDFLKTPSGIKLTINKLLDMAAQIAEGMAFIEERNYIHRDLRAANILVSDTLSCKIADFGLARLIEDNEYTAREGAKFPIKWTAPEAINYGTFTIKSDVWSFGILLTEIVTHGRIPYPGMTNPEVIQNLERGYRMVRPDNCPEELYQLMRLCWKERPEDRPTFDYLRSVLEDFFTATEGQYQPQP

ITK = target: T2, ITK (Homo sapiens, UniProt Q08881); test: Inhibition of a panel of kinases, in vitro HotSpot kinase assay: ITK
T2 sequence (Q08881 1-620): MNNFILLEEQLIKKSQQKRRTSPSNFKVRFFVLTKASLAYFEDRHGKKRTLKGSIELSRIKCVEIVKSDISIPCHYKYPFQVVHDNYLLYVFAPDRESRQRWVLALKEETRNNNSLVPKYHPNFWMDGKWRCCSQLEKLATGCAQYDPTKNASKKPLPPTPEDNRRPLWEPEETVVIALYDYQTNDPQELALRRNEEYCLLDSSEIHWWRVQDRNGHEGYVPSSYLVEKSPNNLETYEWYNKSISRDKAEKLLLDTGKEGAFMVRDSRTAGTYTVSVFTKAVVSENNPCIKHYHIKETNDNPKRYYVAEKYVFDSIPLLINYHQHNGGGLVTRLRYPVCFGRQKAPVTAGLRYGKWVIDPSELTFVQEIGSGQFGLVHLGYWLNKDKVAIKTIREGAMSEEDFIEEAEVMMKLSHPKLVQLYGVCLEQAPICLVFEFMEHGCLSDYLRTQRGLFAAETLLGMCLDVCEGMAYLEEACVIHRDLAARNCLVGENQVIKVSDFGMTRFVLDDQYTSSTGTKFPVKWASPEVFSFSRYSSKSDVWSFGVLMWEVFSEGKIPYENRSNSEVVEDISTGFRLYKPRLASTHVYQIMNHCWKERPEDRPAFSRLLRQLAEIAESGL
Experimental: (§1) The degree of inhibition of a panel of kinases is determined using the in vitro HotSpot kinase assay (purified enzymes, ^33P-ATP, an appropriate substrate and 1 μM ATP).

EGFR = EGFR (Homo sapiens, UniProt P00533); test: Inhibition of a panel of kinases, in vitro HotSpot kinase assay: EGFR
EGFR, sequence (P00533 25-1210): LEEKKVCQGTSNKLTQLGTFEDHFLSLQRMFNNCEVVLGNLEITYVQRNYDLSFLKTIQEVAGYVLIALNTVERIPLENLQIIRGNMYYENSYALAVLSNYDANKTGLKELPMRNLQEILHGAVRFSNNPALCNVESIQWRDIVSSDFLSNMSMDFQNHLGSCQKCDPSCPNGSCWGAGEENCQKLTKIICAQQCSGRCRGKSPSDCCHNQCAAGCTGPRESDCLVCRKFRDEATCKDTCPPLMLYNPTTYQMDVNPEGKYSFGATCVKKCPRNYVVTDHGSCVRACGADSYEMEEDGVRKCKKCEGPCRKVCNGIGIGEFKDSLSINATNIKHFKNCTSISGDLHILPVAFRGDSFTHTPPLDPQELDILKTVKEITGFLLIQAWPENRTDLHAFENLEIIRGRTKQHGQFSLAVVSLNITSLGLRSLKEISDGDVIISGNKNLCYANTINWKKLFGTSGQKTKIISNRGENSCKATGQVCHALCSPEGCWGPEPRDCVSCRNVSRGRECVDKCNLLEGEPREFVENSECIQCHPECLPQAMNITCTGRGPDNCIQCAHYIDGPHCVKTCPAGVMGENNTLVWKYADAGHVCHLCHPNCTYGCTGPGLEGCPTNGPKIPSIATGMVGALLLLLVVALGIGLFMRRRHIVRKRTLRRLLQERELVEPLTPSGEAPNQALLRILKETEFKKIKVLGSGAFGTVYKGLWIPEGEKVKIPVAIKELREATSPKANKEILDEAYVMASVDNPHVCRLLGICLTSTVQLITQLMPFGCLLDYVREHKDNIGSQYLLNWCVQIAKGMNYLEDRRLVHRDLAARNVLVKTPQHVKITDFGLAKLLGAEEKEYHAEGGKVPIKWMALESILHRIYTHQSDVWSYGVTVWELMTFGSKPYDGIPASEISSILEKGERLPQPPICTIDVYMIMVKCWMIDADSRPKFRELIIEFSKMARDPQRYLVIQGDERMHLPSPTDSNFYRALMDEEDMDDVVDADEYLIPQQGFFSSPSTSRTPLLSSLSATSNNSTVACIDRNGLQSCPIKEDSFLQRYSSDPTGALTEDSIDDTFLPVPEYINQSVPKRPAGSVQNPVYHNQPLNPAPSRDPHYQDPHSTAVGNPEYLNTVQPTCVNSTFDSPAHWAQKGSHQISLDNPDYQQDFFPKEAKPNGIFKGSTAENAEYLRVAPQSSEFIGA
Experimental: as §1

SRC = SRC (Homo sapiens, UniProt P12931); test: Inhibition of a panel of kinases, in vitro HotSpot kinase assay: SRC
SRC, sequence (P12931 whole entry): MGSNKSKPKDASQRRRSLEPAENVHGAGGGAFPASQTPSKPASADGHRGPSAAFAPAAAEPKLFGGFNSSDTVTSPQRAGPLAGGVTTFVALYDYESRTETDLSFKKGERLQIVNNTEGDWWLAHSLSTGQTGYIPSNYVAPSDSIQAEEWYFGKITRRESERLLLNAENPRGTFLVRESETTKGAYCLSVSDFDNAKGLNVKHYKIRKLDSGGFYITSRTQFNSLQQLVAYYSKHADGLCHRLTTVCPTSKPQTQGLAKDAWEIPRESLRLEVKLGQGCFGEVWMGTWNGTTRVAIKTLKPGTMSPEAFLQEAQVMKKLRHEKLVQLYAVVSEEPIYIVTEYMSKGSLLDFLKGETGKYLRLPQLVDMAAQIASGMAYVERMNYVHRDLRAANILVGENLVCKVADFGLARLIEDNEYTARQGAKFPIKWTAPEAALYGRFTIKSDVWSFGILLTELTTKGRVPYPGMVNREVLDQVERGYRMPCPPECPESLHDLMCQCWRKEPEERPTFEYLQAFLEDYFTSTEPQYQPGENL
Experimental: as §1

TEC = target: T3, TEC (Homo sapiens, UniProt P42680); test: Inhibition of a panel of kinases, in vitro HotSpot kinase assay: TEC
T3 sequence (P42680 1-631): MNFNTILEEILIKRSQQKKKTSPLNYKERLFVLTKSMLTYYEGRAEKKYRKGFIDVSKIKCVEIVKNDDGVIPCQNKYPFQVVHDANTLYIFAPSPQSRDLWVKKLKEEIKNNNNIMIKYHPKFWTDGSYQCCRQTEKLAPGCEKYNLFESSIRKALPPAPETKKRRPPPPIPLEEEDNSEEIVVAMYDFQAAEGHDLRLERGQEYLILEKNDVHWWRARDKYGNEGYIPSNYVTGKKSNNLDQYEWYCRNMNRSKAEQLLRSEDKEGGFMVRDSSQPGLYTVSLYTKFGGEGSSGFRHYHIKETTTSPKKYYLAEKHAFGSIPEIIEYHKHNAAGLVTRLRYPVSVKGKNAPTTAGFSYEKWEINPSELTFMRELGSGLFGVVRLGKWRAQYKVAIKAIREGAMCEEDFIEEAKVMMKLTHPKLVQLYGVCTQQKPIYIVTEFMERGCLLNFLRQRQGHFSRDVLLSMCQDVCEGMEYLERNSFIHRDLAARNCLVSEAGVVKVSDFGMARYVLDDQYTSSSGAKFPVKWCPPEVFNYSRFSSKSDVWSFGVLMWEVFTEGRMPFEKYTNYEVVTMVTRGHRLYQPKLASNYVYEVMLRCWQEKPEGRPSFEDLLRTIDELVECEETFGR
Experimental: as §1

[1] = Table 13, A compounds, 1 μM ATP

C[C@@H]1[C@H](NC(=O)c2ccc(C3CC3)nc2)CCCN1c1cnc(C(N)=O)c(Nc2cnn(C)c2)n1 [Example A-190, 5-((2R,3R)-3-(6-cyclopropylnicotinamido)-2-methylpiperidin-1-yl)-3-(1-methyl-1H-pyrazol-4-ylamino)pyr-azine-2-carboxamide]
pIC50 (BTK-WT; Table 13, A compounds): ≥ 8.00 | pIC50 (LCK; [1]): 6.00 to 7.00 | pIC50 (ITK; [1]): 6.00 to 7.00 | pIC50 (EGFR; [1]): 5.00 to 6.00 | pIC50 (SRC; [1]): 7.00 to 8.00 | pIC50 (TEC; [1]): 7.00 to 8.00

Cc1cc(Nc2nc(N3CC[C@H](O)[C@@H](N4CCC[C@@H](Nc5cc(Cl)cc(C(F)(F)F)c5)C4=O)C3)nnc2C(N)=O)sn1 [Example E-10, 3-((3R,3'S,4'S)-3-(3-chloro-5-(trifluoromethyl)phenylamino)-4′-hydroxy-2-oxo-1,3′-bipiperidin-1-yl)-5-(3-methylisothiazol-5-ylamino)-1,2,4-triazine-6-carboxamide]
pIC50 (BTK-WT; E compounds, Table 17): ≥ 8.00 | pIC50 (LCK; E compounds, Table 17): > 8.00 | pIC50 (ITK; E compounds, Table 17): ≥ 8.00 | pIC50 (EGFR; E compounds, Table 17): 7.00 to 8.00 | pIC50 (SRC; E compounds, Table 17): ≥ 8.00 | pIC50 (TEC; E compounds, Table 17): 7.00 to 8.00

C=CC(=O)N1CCC[C@@H](Nc2nnc(C(N)=O)c(Nc3cc(C)ns3)n2)C1 [Example E-11, (R)-3-(1-acryloylpiperidin-3-ylamino)-5-(3-methylisothiazol-5-ylamino)-1,2,4-triazine-6-carboxamide]
pIC50 (BTK-WT; E compounds, Table 17): ≥ 8.00 | pIC50 (LCK; E compounds, Table 17): 7.00 to 8.00 | pIC50 (ITK; E compounds, Table 17): ≥ 8.00 | pIC50 (EGFR; E compounds, Table 17): ≥ 8.00 | pIC50 (SRC; E compounds, Table 17): 7.00 to 8.00 | pIC50 (TEC; E compounds, Table 17): ≥ 8.00

C=CC(=O)N1CC[C@@H](N(C)c2nnc(C(N)=O)c(Nc3cc(C)ns3)n2)C1 [Example E-12, (R)-3-((1-acryloylpyrrolidin-3-yl)(methyl)amino)-5-(3-methylisothiazol-5-ylamino)-1,2,4-triazine-6-carboxamide]
pIC50 (BTK-WT; E compounds, Table 17): ≥ 8.00 | pIC50 (LCK; E compounds, Table 17): 6.00 to 7.00 | pIC50 (ITK; E compounds, Table 17): ≥ 8.00 | pIC50 (EGFR; E compounds, Table 17): 7.00 to 8.00 | pIC50 (SRC; E compounds, Table 17): 7.00 to 8.00 | pIC50 (TEC; E compounds, Table 17): ≥ 8.00

C=CC(=O)N1CC[C@@H](N(C)c2nnc(C(N)=O)c(Nc3ccc(C(C)C)cc3)n2)C1 [Example E-26, (R)-3-((1-acryloylpyrrolidin-3-yl)(methyl)amino)-5-(4-isopropylphenylamino)-1,2,4-triazine-6-carboxamide]
pIC50 (BTK-WT; E compounds, Table 17): ≥ 8.00 | pIC50 (LCK; E compounds, Table 17): 5.00 to 6.00 | pIC50 (ITK; E compounds, Table 17): ≥ 8.00 | pIC50 (EGFR; E compounds, Table 17): ≥ 8.00 | pIC50 (SRC; E compounds, Table 17): 7.00 to 8.00 | pIC50 (TEC; E compounds, Table 17): ≥ 8.00

C=CC(=O)N1CCC[C@@H](Nc2nnc(C(N)=O)c(Nc3ccc(-c4ncco4)cc3)n2)C1 [Example E-40, (R)-3-(1-acryloylpiperidin-3-ylamino)-5-(4-(oxazol-2-yl)phenylamino)-1,2,4-triazine-6-carboxamide]
pIC50 (BTK-WT; E compounds, Table 17): ≥ 8.00 | pIC50 (LCK; E compounds, Table 17): 6.00 to 7.00 | pIC50 (ITK; E compounds, Table 17): 7.00 to 8.00 | pIC50 (EGFR; E compounds, Table 17): ≥ 8.00 | pIC50 (SRC; E compounds, Table 17): 6.00 to 7.00 | pIC50 (TEC; E compounds, Table 17): ≥ 8.00

C=CC(=O)N1CCC[C@@H](Nc2nnc(C(N)=O)c(Nc3ccc(-c4ncccn4)cc3)n2)C1 [Example E-41, (R)-3-(1-acryloylpiperidin-3-ylamino)-5-(4-(pyrimidin-2-yl)phenylamino)-1,2,4-triazine-6-carboxamide]
pIC50 (BTK-WT; E compounds, Table 17): ≥ 8.00 | pIC50 (LCK; E compounds, Table 17): 6.00 to 7.00 | pIC50 (ITK; E compounds, Table 17): 7.00 to 8.00 | pIC50 (EGFR; E compounds, Table 17): 7.00 to 8.00 | pIC50 (SRC; E compounds, Table 17): 6.00 to 7.00 | pIC50 (TEC; E compounds, Table 17): ≥ 8.00

C=CC(=O)N1CCC[C@@H](Nc2nnc(C(N)=O)c(Nc3ccc(C4CCN(C(=O)CC)CC4)cc3)n2)C1 [Example E-45, (R)-3-(1-acryloylpiperidin-3-ylamino)-5-(4-(1-propionylpiperidin-4-yl)phenylamino)-1,2,4-triazine-6-carboxamide]
pIC50 (BTK-WT; E compounds, Table 17): ≥ 8.00 | pIC50 (LCK; E compounds, Table 17): 7.00 to 8.00 | pIC50 (ITK; E compounds, Table 17): ≥ 8.00 | pIC50 (EGFR; E compounds, Table 17): ≥ 8.00 | pIC50 (SRC; E compounds, Table 17): 7.00 to 8.00 | pIC50 (TEC; E compounds, Table 17): ≥ 8.00

C=CC(=O)N[C@@H]1CCCN(c2cnc(C(N)=O)c(Nc3ccc(C4CCN(C5CC5)CC4)cc3)n2)[C@@H]1C [Example E-93, 5-((2R,3R)-3-acrylamido-2-methylpiperidin-1-yl)-3-(4-(1-cyclopropylpiperidin-4-yl)phenylamino)pyrazine-2-carboxamide]
pIC50 (BTK-WT; E compounds, Table 17): ≥ 8.00 | pIC50 (LCK; E compounds, Table 17): 7.00 to 8.00 | pIC50 (ITK; E compounds, Table 17): 7.00 to 8.00 | pIC50 (EGFR; E compounds, Table 17): 7.00 to 8.00 | pIC50 (SRC; E compounds, Table 17): ≥ 8.00 | pIC50 (TEC; E compounds, Table 17): ≥ 8.00
